System: Diceraus melacanthus
Experiment: Field study in a wheat harvest area: attraction of stink bugs by pear ester versus regular pheromone, 24 hour period, six blocks
Assay type: in vivo
Settings: for attraction rate (stink bugs attracted per treatment): wheat harvest area
Protocol: A study was conducted to evaluate the effectiveness of pear ester versus regular pheromone to attract sting bugs. In particular, a study was conducted in a wheat harvest area in an attempt to attract the stink bug, Diceraus melacanthus.

CCCCC/C=C\C=C\C(=O)OCC [Pear Ester, Ethyl-2E,4Z-decadienoate]
attraction rate compared with regular pheromone (24 hour period, six blocks, result in words): at least, the same as the regular pheromone | attraction rate (stink bugs attracted per treatment) (Block 1, 24 hour period): 3 | attraction rate (stink bugs attracted per treatment) (Block 2, 24 hour period): 1 | attraction rate (stink bugs attracted per treatment) (Block 3, 24 hour period): 0 | attraction rate (stink bugs attracted per treatment) (Block 4, 24 hour period): 0 | attraction rate (stink bugs attracted per treatment) (Block 5, 24 hour period): 3 | attraction rate (stink bugs attracted per treatment) (Block 6, 24 hour period): 1 | attraction rate, Mean (Mean of six blocks, 24 hour period): 1.33 | attraction rate, Sum (Sum of six blocks, 24 hour period): 8.00 | attractant effect on stink bugs (stink bugs, including Diceraus melacanthus, Nezara viridula, Piezodorus guildinii, Tibraca limbativentris, Chinavia spp, Edessa meditabunda, Euschistus heros, result in words): clearly has an attractant effect

— patent publication US12082579B2, “Compositions and methods to manage hemiptera” (ISCA Technologies, Inc., priority 2021, dated 2024)
